From patent publication US10208007B2, “Use of strigolactones and strigolactone analogs for treating proliferative conditions” (The State of Israel, Ministry of Agriculture & Rural …, priority 2011, dated 2019)

How the values were obtained:
MCF-7 mammospheres [1] = experiment: Mammosphere formation; assay type: cell-based, human; details: for Dose to block/inhibit mammosphere formation, fold lower than for monolayer growth: MCF-7
Procedure: Adherent cells were gently trypsinized, (0.05% trypsin/EDTA) washed twice in PBS and filtered through a […] cell sieve to obtain a single cell suspensions. Cells were diluted to a concentration of 10,000 cell/ml in serum-free phenol-red free MEBM (MEGM Bulletkit, Lonza) supplemented with 5 μg/ml bovine insulin, 20 ng/ml recombinant epidermal growth factor, 20 ng/ml basic fibroblast growth factor (Gibco), 1×B27 supplement, 0.5 μg/ml hydrocortisone (MEGM Bulletkit, Lonza). For MDA-MB-231 mammosphere cultures serum-free phenol red-free CnT-27 medium with growth additives (CellnTEC Advanced cell systems, Bern, Switzerland) was used as previously described. 0.1 ml was seeded per well of a Ultralow attachment 96 well plates. The following day the indicated doses of GR-24 (ppm) or vehicle alone (0.6% acetone f/c) were added. Media was replenished every 3-4 days. Self-renewal capacity of the mammospheres was determined by re-plating and producing further generations of mammospheres. Secondary mammospheres were cultivated by dissociation (trypsinization with gently vortexing) of 10-14 day old primary mammospheres. Single cell suspensions were obtained as described above.
(§1) Given the similar effects the other strigolactone analogs had on breast cancer cell line growth compared to GR-24, we anticipated that the strigolactone analogs would also have similar effects on MCF-7 primary mammosphere formation (FIG. 10): MCF-7 cells were seeded in MEBM media into low attachment, 96 well plates in duplicate at 3000 cells per well. The same day the indicated doses of strigolactone analogs were added. After 7 days representative images were taken. […] Like GR-24, the doses required to inhibit mammosphere formation are lower than that required to inhibit proliferation in monolayer cultures (5 fold lower; ST-362 and MEB-55, 3 fold lower; ST-357). To determine if the sensitivity to strigolactone analogs treatments was specific to mammosphere formation or whether it extended to the integrity and survival of mature mammospheres, MCF-7 mammospheres were grown in the absence of strigolactone analogs and after 7 days (or once mammospheres had reached a mean diameter of over […]), strigolactone analogs were added to the growth media (FIG. 10) at the indicated doses. MCF-7 cells were seeded in MEBM media into low attachment, 96 well plates in duplicate at 3000 cells per well and primary mammospheres left to grow for 7 days. At which time the indicated doses of strigolactone analogs were added to the media. FIG. 11A is a representative image of mammospheres treated with 5 ppm concentrations, showing dissociation after 2 days of exposure to strigolactone analogs. […] Following […] treatment, mammospheres were monitored visually after 24 and 48 hours. No changes were observed following 24 hours of strigolactone analogs treatment. […] At 5 ppm concentrations EG-5, EG-9C, ST-357, ST-362 and MEB-55 reduce mammosphere numbers from 86.7+6.8 (vehicle control) to 23+5, 38+6.2, 6+2, 8.3+3.5 and 9.3+1.5%, respectively. At 2.5 ppm concentrations, mammosphere numbers were reduced to 35+6.9 (EG-5), 52+12.3 (EG-9C), 22+8.5 (ST-357), 6+1.7 (ST-362) and 20.7+8.6 (MEB-55). […] XTT viability assays were also carried out on dissociated mammospheres. At concentrations of 5 ppm, EG-5, ST-362 and MEB-55 reduced viability to 3.7+0.5, 25.5+8.8 and 4.6+1.1% respectively.

MCF10A = details: 3 days
Procedure: Results are presented as Average±SD of replicate analyses and are either representative of, or inclusive of at least two independent experiments. Statistical analyses were performed using student's t-test (2-tailed, paired) versus vehicle controls and are regarded as being significant when P<0.05(*). Higher powers (p<0.01, p<0.001) are also employed and indicated in each figure legend. IC50 doses for strigolactone analogs were calculated by interpolation of the sigmoidal dose response curves (Graphpad Prism 4.0 software). Briefly, linear regression was performed between relevant y-axis data points and interpolation calculated for x-axis unknowns.
Cells were seeded into a 96 well plates at 1500 cells per well (MCF-10, PC3, DU145, MDA-MB-231, MDA-MB-436, HT-29, SW480), 1000 cells per well (K562) or 4000 cells per well (MCF-7, HCT116) in triplicate in normal growing media (with the exception of K562, a non-adherent leukemic cell line which was seeded in phenol-free DMEM supplemented with 10% charcoal-stripped FBS). The following day media was replaced with phenol-free DMEM supplemented with 10% charcoal stripped FBS and the indicated final concentrations of strigolactone analog or vehicle (acetone) alone. Cells were incubated for 3 days, at which time XTT (2,3,-bis(2-methoxy-4-nitro-5-sulfophenyl)-5-[(phenylamino)-carbonyl]-2H-tetrazolium inner salt) reduction was used to quantify viability according to manufacturer's instruction (ATCC). Cells were incubated with XTT reagent for 2-3 hours at 37° C. in a humidified 5% CO2-95% air atmosphere. Absorbance was recorded by a photometer [sequence]luor Plus, Tecan (Salzburg, Austria) at 450 nm with 750 nm of reference wavelength. Cell survival was estimated from the equation: % cell survival=100×(At−Ac), where At and Ac are the absorbencies (450 nm) of the XTT colorimetric reaction (ATCC) in treated and control cultures respectively minus non-specific absorption measured at 750 nm. Absorbance of medium alone was also deducted from specific readings.
MCF-10A cells were included as an example of a non-tumorigenic line. XTT viability assays were carried out in the presence of the indicated doses of strigolactone analogs following 3 days of treatment. Resulting differences in absorbance readings following strigolactone analogs treatment reflect changes in proliferation and cell survival (FIG. 7A-C): Cells were seeded into 96 well plates in normal growing media. The following day media was replaced with phenol-free DMEM supplemented with 10% charcoal-stripped serum and the indicated doses of strigolactone analog or vehicle (cont.) alone. Viability was assayed after 3 days (XTT, ATCC).

MCF-7 mammospheres [2] = experiment: cells; assay type: cell-based, human; details: for Mammosphere morphology: 2.5-5 ppm, after 48 hours; for Mammosphere numbers (>100 μM), percentage of vehicle treated control: 5 days; for viability at 5 ppm: Homo sapiens, MCF7, read-out: XTT viability of dissociated mammospheres
Procedure: as §1

CYCB1 = experiment: Gene transcription level by quantitative PCR: CYCB1; assay type: in vivo, Arabidopsis thaliana; details: for CYCB1 transcription level versus controls: 3 μM
Procedure: Seeds of homozygous lines of Arabidopsis thaliana wild type (WT; Columbia; Col-0) and max2-1 mutant (http://abrc.osu.edu/) were surface-sterilized and germinated on 1/2 Murashige and Skoog (MS) plates supplemented with 1% sucrose and solidified with 0.7% agar. Plates were incubated vertically in the dark at 4° C. for two days to synchronize germination. Three days after germination, seedlings were gently transferred using forceps to 1/2 MS plates containing various concentrations of GR-24 as a mixture of four diastereomers: (±)-GR-24 and (±)-2'-epi-GR-24. The root tip of the transferred seedling was marked on the plates. The plates remained unsealed to prevent accumulation of gases (e.g., ethylene), and were positioned in an upright 45° position, and incubated at 22° C. with a light intensity of […] photons m-2 s-1 provided by white fluorescent tubes and under a photoperiod of 16 hours exposure to light/8 hours in the dark for 6-12 days. GR-24 treatments were conducted at concentrations ranging from 2.7×10^-6 to 13.5×10^-6 M. […] GR-24, ST-357 and ST-362 were initially dissolved in acetone to give a 4.5 mM, 10 μM and 10 μM solutions, respectively, which were then further diluted with double-distilled sterile water (DDW). […] In each of the experiments, non-treated roots were compared to the respective acetone control. Where no difference was observed between the various controls, non-treated roots are shown. Where differences were recorded between non-treated and acetone controls, the comparison was made between GR-24, ST-357 and ST-362-treated and acetone-treated roots. RNA was extracted from seedlings grown and treated as described in Example 1. Quantitative PCR was performed by amplifying fragments of genes of interest (Tables 6 & 7). Arabidopsis 15S ribosomal RNA (GenBank accession no. AT1G04270.1) served as the reference gene for the amount of RNA, and was amplified using specific primers (forward) [NT] and (reverse) [NT]. The experiment was performed in 5-6 biological replicates; each replicate included 8 plants, on which 3 technical repeats were performed. Means and standard error were determined from all biological replicates. Primers were designed using PrimerQuest software (Integrated DNA Technologies). RNA was extracted using Trizol (Invitrogen, Carlsbad, Calif., USA) using the manufacturer's protocol. 1 μg RNA was reverse-transcribed in a total volume of 20 μl using the Superscript First strand cDNA synthesis kit (Invitrogen). PCR was performed in triplicate using an ABI-Prism 7900 instrument (Applied Biosystems, Foster City, Calif.) and SYBR Green I detection (Applied Biosystems) according to the manufacturer's protocol. The expression of each target gene was normalized to the expression of GAPDH RNA and is presented as the ratio of the target gene to GAPDH RNA, expressed as 2-ΔCt, where Ct is the threshold cycle and ΔCt=[NT] GAPDH.

[3] = 5 ppm, vehicle control 86.7+6.8

SMILES | Mammosphere formation (MCF-7 mammospheres [1]; 1 ppm, p<0.01) | Mammosphere growth (MCF-7 mammospheres [1]; 2.5 ppm) | Mammosphere formation (MCF-7 mammospheres [1]; 5 ppm and above) | Dose to block/inhibit mammosphere formation, fold lower than for monolayer growth (MCF-7 mammospheres [1]) [fold] | IC50 at 72 h (MCF10A) [ppm] | Mammosphere morphology (MCF-7 mammospheres [2]) | Mammosphere numbers (>100 μM), percentage of vehicle treated control (MCF-7 mammospheres [2]; 2.5 ppm) | Mammosphere numbers (>100 μM), percentage of vehicle treated control (MCF-7 mammospheres [2]; [3]) | viability at 5 ppm (MCF-7 mammospheres [2]) [%] | CYCB1 transcription level versus controls (CYCB1; WT seedlings) | Mammosphere growth (MCF-7 mammospheres [1]; 0.5 ppm, p<0.05) | CYCB1 transcription level versus controls (CYCB1; max2-1 seedlings) | CYCB1 transcription relative to controls (CYCB1; root tips, 2.7 μM) | CYCB1 transcription in comparison to controls (CYCB1; root tips, 13.5 μM)
CC1=CC(O/C=C2\Cc3c(n(C)c4cc(-c5cccs5)ccc34)C2=O)OC1=O (racemic) [MEB-55, (±) 2E-4-methyl-2-(4-methyl-5-oxo-2,5-dihydrofuran-2-yloxymethylene)-6-thiophen-2-yl-1,4-dihydro-2H-cyclopenta[b]indol-3-one] | significantly inhibit mammosphere formation | block mammosphere growth | completely block mammosphere formation | 5 | >15 | exhibited a looser morphology and appeared to be dissociating | 20.7 ± 8.6% | 9.3+1.5% | 4.6 | – | – | – | – | –
CC1=CC(O/C=C2/C(=O)c3c(c4cc(-c5scc6c5OCCO6)ccc4n3C)C2C)OC1=O (stereo not drawn) [ST-362, (2E)-2-[(2,5-dihydro-4-methyl-5-oxofuran-2-yloxy)methylene]-1,2-dihydro-7-(2,3-dihydrothieno[3,4-b][1,4]dioxin-7-yl)-1,4-dimethyl-cyclopenta[b]indole-3-(4H)-one] | significantly inhibit mammosphere formation | block mammosphere growth | completely block mammosphere formation | 5 | >15 | exhibited a looser morphology and appeared to be dissociating | 6+1.7% | 8.3+3.5% | – | 0.008 ± 0.007 | – | – | – | –
CC1=CC(O/C=C2/C(=O)c3c(c4cc(-c5cccs5)ccc4n3C)C2C)OC1=O (stereo not drawn) [ST-357, (2E)-1,4-dimethyl-2-((4-methyl-5-oxo-2,5-dihydrofuran-2-yloxy)methylene)-7-(thiophen-2-yl)-1,2-dihydrocyclopenta[b]indol-3(4H)-one] | significantly inhibit mammosphere formation | significant reduction in mammosphere growth | completely block mammosphere formation | 3 | >15 | exhibited a looser morphology and appeared to be dissociating | 22+8.5% | 6+2% | – | 0.460 ± 0.362 | – | – | – | –
CC1=CC(O/C=C2\Cc3c(n(C)c4ccccc34)C2=O)OC1=O (racemic) [EG-5, (±) (2E)-4-methyl-2-(4-methyl-5-oxo-2,5-dihydrofuran-2-yloxymethylene)-1,4-dihydro-2H-cyclopenta[b]indol-3-one] | – | – | completely block mammosphere formation | – | >15 | – | 35+6.9% | 23+5% | 3.7 | – | – | – | – | –
CC1=C[C@H](O/C=C2/C(=O)O[C@@H]3c4ccccc4C[C@H]23)OC1=O (relative stereo) [GR-24, (3aR*,8bS*,E)-3-(((R*)-4-methyl-5-oxo-2,5-dihydrofuran-2-yloxy)methylene)-3,3a,4,8b-tetrahydro-2H-indeno[1,2-b]furan-2-one] | severely attenuated | – | – | 5.7 | – | – | – | – | – | 0.008 ± 0.003 | inhibited to a lesser degree | 0.211 ± 0.078 | 0.97±0.47 | 0.16±0.00
